Data published in PMC6789782, “Safety Pharmacological Evaluation of the Coffee Component, Caffeoylquinic Acid, and Its Metabolites, Using Ex Vivo and In Vitro Profiling Assays” (Pharmaceuticals, 2019).
Like-named read-outs stand apart in the source and are kept apart here.

Key:
Histamine H1 = Histamine H1 (Homo sapiens, UniProt P35367); experiment: In vitro profiling, binding assay
Protocol: (§1) Binding and functional assays of CGAs with the proteins known to be pharmacological targets related to the CVS, CNS, and GI functions were conducted. […] In the binding assay, we measured the radiation activity of the solution containing filtered proteins that bound to the tested compound or high-affinity ligand, while in the functional assays, we measured the reaction product. The ability of the test compound to interact with the tested targets was measured as the inhibition of ligand binding to the target or reaction product production (% inhibition).

Adrenergic β2 = Adrenergic β2 (Homo sapiens, UniProt P07550); experiment: In vitro profiling, binding assay
Adrenergic β2, sequence (P07550 whole entry): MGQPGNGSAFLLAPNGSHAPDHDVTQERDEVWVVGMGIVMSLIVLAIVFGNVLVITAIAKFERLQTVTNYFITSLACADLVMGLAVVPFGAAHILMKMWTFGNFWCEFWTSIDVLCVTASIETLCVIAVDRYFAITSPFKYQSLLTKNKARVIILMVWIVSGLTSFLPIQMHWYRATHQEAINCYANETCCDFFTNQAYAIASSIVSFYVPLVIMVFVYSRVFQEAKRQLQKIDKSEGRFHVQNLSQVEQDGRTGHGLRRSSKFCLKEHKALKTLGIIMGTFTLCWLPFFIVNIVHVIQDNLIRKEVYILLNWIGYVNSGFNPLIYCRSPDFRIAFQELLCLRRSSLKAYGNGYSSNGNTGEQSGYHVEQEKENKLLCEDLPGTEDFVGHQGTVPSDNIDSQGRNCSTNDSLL
Protocol: as §1

Glutamate, NMDA = experiment: In vitro profiling, binding assay; set-up: species or system rat; conditions: 30 µM
Protocol: as §1

[1] = system: Calcium Channel L-Type, Dihydropyridine; experiment: In vitro profiling, binding assay; set-up: species or system rat; conditions: 30 µM
Protocol: as §1

[2] = system: Calcium Channel L-Type, Phenylalkylamine; experiment: In vitro profiling, binding assay; set-up: species or system rat; conditions: 30 µM
Protocol: as §1

[3] = system: Calcium Channel L-Type, Benzothiazepine; experiment: In vitro profiling, binding assay; set-up: species or system rat; conditions: 30 µM
Protocol: as §1

GABAA = experiment: In vitro profiling, binding assay; set-up: species or system rat; conditions: 30 µM
Protocol: as §1

Sodium Channel = experiment: In vitro profiling, binding assay; set-up: species or system rat; conditions: 30 µM
Protocol: as §1

Cyclooxygenase COX-1 = Cyclooxygenase COX-1 (Homo sapiens, UniProt P23219); experiment: In vitro profiling, functional assay; format: biochemical
Cyclooxygenase COX-1, sequence (P23219 24-599): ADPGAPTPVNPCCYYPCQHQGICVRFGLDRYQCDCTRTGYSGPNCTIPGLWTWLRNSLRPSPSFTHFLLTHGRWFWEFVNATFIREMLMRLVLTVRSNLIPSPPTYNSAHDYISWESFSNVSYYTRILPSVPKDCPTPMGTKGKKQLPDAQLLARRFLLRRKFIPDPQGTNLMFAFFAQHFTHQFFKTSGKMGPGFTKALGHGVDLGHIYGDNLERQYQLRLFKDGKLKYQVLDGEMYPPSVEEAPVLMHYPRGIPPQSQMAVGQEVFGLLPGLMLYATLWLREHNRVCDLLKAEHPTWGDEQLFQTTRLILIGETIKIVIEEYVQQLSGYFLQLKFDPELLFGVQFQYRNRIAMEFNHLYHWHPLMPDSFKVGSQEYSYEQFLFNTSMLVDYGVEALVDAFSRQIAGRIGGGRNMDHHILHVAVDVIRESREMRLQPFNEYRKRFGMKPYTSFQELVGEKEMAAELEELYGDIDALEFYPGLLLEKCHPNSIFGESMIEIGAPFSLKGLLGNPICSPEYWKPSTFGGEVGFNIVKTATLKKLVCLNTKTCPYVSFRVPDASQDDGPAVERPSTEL
Protocol: as §1

[4] = target: T1, Peptidase, CTSG (Cathepsin G) (Homo sapiens, UniProt P08311); experiment: In vitro profiling, functional assay; format: biochemical
T1 sequence (P08311 21-255): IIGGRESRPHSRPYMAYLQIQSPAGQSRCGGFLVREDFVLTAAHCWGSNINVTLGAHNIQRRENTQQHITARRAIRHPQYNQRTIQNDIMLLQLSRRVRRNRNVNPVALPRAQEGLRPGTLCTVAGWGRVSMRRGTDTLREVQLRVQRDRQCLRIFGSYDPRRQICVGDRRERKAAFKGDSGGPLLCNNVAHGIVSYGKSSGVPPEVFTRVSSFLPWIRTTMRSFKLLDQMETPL
Protocol: as §1

Monoamine Oxidase MAO-A = target: T2, Monoamine Oxidase MAO-A (Homo sapiens, UniProt P21397); experiment: In vitro profiling, functional assay; format: biochemical
T2 sequence (P21397 1-527): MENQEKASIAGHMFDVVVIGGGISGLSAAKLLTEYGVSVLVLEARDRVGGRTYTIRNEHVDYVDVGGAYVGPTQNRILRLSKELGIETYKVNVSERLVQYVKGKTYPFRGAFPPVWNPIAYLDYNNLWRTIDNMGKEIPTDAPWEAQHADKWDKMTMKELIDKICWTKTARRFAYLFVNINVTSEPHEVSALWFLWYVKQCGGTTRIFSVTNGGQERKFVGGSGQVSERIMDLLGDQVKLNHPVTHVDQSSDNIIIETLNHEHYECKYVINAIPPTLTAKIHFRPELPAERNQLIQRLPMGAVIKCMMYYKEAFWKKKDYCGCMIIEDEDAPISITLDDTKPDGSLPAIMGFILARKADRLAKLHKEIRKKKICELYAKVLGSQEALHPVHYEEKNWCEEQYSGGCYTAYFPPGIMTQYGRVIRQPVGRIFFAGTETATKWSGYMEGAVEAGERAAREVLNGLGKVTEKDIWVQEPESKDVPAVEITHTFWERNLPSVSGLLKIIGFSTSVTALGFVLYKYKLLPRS
Protocol: as §1

Cyclooxygenase COX-2 = target: T3, Cyclooxygenase COX-2 (Homo sapiens, UniProt P35354); experiment: In vitro profiling, functional assay; format: biochemical
T3 sequence (P35354 18-604): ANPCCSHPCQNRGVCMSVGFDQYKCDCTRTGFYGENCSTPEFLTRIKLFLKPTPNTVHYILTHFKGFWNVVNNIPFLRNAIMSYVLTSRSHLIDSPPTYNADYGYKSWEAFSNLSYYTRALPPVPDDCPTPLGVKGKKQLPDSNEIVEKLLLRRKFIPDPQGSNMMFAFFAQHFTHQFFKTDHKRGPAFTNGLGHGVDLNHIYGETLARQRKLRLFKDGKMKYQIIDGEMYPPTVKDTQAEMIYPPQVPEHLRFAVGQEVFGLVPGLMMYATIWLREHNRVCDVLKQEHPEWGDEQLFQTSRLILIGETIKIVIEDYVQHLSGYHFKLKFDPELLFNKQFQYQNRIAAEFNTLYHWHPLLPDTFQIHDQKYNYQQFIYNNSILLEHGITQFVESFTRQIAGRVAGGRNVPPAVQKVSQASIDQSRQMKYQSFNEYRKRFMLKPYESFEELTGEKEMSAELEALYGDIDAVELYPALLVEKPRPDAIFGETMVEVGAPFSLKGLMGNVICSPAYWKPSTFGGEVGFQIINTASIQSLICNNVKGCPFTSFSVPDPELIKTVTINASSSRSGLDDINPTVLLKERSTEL
Protocol: as §1

[5] = 30 µM, Adrenergic β2, read-out: % Inhibition
[6] = 30 µM, Cyclooxygenase COX-1, read-out: % Inhibition
[7] = 30 µM, Peptidase, CTSG (Cathepsin G), read-out: % Inhibition
[8] = 30 µM, Monoamine Oxidase MAO-A, read-out: % Inhibition

Histamine H1, sequence (P35367 whole entry): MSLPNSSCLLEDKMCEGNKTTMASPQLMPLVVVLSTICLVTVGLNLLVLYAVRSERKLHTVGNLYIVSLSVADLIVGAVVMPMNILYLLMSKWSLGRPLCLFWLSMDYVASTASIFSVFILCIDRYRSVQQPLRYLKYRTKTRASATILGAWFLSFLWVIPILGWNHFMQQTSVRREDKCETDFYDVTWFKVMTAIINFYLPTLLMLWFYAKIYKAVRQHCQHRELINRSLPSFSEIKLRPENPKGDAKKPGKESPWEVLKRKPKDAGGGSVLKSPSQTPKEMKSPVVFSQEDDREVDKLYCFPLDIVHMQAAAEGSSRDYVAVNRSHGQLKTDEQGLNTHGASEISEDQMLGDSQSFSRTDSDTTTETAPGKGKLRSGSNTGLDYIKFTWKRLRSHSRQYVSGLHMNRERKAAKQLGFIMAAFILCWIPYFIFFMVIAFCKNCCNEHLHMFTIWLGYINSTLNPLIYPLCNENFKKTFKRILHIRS

Structure (SMILES)	% Inhibition (Histamine H1; 30 µM) [%]	% Inhibition (Adrenergic β2; 30 µM, Adrenergic β2) [%]	% Inhibition (Glutamate, NMDA) [%]	% Inhibition [1] [%]	% Inhibition [2] [%]	% Inhibition [3] [%]	% Inhibition (GABAA) [%]	% Inhibition (Sodium Channel) [%]	inhibition at 30 µM (Cyclooxygenase COX-1) [%]	% Inhibition ([4]; 30 µM, Peptidase, CTSG (Cathepsin G)) [%]	inhibition at 30 µM (Monoamine Oxidase MAO-A) [%]	inhibition at 30 µM (Cyclooxygenase COX-2) [%]	inhibition at 30 µM (Histamine H1) [%]	inhibition at 30 µM (Adrenergic β2; [5]) [%]	inhibition at 30 µM (Cyclooxygenase COX-1; [6]) [%]	inhibition at 30 µM [4, 7] [%]	inhibition at 30 µM (Monoamine Oxidase MAO-A; [8]) [%]	inhibition at 30 µM (Adrenergic β2) [%]	inhibition at 30 µM [4] [%]	inhibition at 30 µM (Cyclooxygenase COX-2; 30 µM, Cyclooxygenase COX-2, read-out: % Inhibition) [%]
O=C(O)/C=C/c1ccc(O)c(O)c1 [CA, caffeic acid]	−11	2	5	7	21	−3	18	1	6	1	0	9								
O=C(/C=C/c1ccc(O)c(O)c1)O[C@H]1C[C@@](O)(C(=O)O)C[C@H](O)[C@@H]1O [5-CQA, 5-O-caffeoylquinic acid]			9	1	14	−3	8	19				7	-12	1	2	8	-5			
COc1cc(/C=C/C(=O)O)ccc1O [FA, ferulic acid]			16	1	26	6	1	5	5		5	14						2	-2	
COc1cc(/C=C/C(=O)O[C@H]2C[C@@](O)(C(=O)O)C[C@H](O)[C@@H]2O)ccc1O [5-FQA, 5-O-feruloylquinic acid]			10	6	19	6	15	10					-22	6	11	2	0			18
